Measurements as given in US20260242410A1, “CRYSTALLINE FORMS OF A NEUROACTIVE STEROID” (Sage Therapeutics, Inc., priority 2022, published 2026).

Test: Stability of the crystalline solvate form on drying, followed by XRPD
Type: physicochemical
Protocol: XRPD analyses were performed using a PANalytical X′pert pro with PIXcel detector (128 channels), scanning the samples between 3 and 35° 20. Solid Compound (1) was gently ground to release any agglomerates and loaded onto a multi-well plate with a Mylar polymer film to support the sample. The multi-well plate was then placed into the diffractometer and analyzed using Cu K radiation (a1 λ=1.54060 Å; a2=1.54443 Å; β=1.39225 Å; a1: a2 ratio=0.5) running in transmission mode (step size 0.0130° 20, step time 18.87s) using 40 kV/40 mA generator settings. Data were visualized and images generated using the HighScore Plus 4.7 desktop application (PANalytical, 2017). The 20 position was calibrated using alumina powder reference standard on a monthly basis.
100 mg of anhydrous Compound (1) was temperature cycled in 600 μL of acetone for 24 hours. Accordingly, 600 μL of acetone was added in 200 μL aliquots to a vile containing 100 mg of anhydrous Compound (1), to form a movable slurry. The vile was then capped, wrapped in parafilm and temperature cycled in an incubator shaker between ambient temperature and 40° C. with a 4 hour hold at each temperature. After 24 hours, the solid Compound (1) Acetone Solvate Form was isolated by centrifugation.
Approximately 200 mg of anhydrous Compound (1) was weighed into a scintillation vial and 1 mL of DMSO added to form a slurry. The slurry was then temperature cycled between ambient temperature and 40° C. in 4 hour cycles for 48 hours. After this time, the sample was dried in a 40° C. oven. On removal from the oven, the sample remained wet, so the sample was isolated by centrifuge filtration and then dried under vacuum at ambient conditions over night. After drying, the sample was reanalyzed by XRPD to be Compound (1) DMSO Solvate Form.
FIG. 4 depicts a non-normalized X-ray powder diffraction pattern for Compound (1) DMSO Solvate Form. The XRPD pattern was stable on drying under vacuum.

Row | SMILES | Crystallinity / XRPD pattern after gentle drying (72 hours gentle drying at ambient temperature (no vacuum), repreparation by temperature cycling) | Solid form obtained after complete drying (complete drying of the product) | Crystallinity / XRPD pattern after gentle drying (drying at 40° C. for 24 hours) | XRPD pattern stability on drying (drying under vacuum)
1 | COC[C@@]1(O)CC[C@H]2[C@@H](CC[C@@H]3[C@@H]2CC[C@]2(C)[C@@H](C(=O)Cn4nnc(C)n4)CC[C@@H]32)C1 [Compound (1) Acetone Solvate Form] | the XRPD pattern had not changed, there was a significant drop in crystallinity | produces crystalline anhydrous Compound (1) | significant loss in crystallinity, but negligible change in the XRPD pattern | 
2 | COC[C@@]1(O)CC[C@H]2[C@@H](CC[C@@H]3[C@@H]2CC[C@]2(C)[C@@H](C(=O)Cn4nnc(C)n4)CC[C@@H]32)C1 [Compound (1) DMSO Solvate Form] |  |  |  | stable
